Experimental data from patent US20120040951A1, “HETEROARYL COMPOUNDS USEFUL AS RAF KINASE INHIBITORS” (priority 2008, published 2012).
Like-named read-outs stand apart in the source and are kept apart here.

What was measured:
V599E Raf = V599E Raf (Homo sapiens, UniProt P15056, V600E); assay: Biochemical FRET assay, mutant Raf (phosphorylation of MEK); conditions: 0.125 nM V599E Raf, 100 nM biotin-MEK, 25 μM ATP, read-out: Raf (mut) inhibition
Protocol: (1) Biochemical FRET Assay […]
Inhibitors were diluted 4-fold in 100% DMSO and added to a final concentration of 10 μM to 40 μM to a solution containing 100 nM biotin-MEK, 0.125 nM V599E Raf in 50 mM HEPES, pH 7.4, 60 mM NaCl, 3 mM MgCl2, 2 mM DTT, 0.25 mM MnCl2, 0.01% BSA, and 0.01% Tween-20 and incubated for 20 minutes at room temperature. The kinase reaction was started by the addition of 25 μM ATP to a final volume of 45 μl and allowed to progress for 60 minutes. The reaction was stopped with 15 mM EDTA and 20 nM Streptavidin-APC, 2.5 nM Polyclonal anti p-MEK1/2 (Ser217/221), 2.5 nM Eu-labeled anti-rabbit IgG were added in Lance detection buffer and 5% Superblock in PBS for a final volume of 100 μl. The detection reaction was incubated for 90 minutes at room temperature and then read on an Analyst plate reader using standard TR-FRET (time resolved fluorescence resonance energy transfer) settings for Eu and APC.
Compounds having an activity designated as “A” provided an IC50≦100 nM; compounds having an activity designated as “B” provided an IC50 of 100-1000 nM; and compounds having an activity designated as “C” provided an IC50 of 1000-10,000 nM.

[1] = system: phospho-ERK in melanoma derived WM-266-4 cells; assay: Mechanistic cellular assay for Raf kinase activity (phospho-ERK, Bio-Plex); format: cell-based; conditions: treated 1-2 hr at 37° C., serum free medium, read-out: pERK EC50
Summary of the method: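 WM-266-4 melanoma cells (wild-type/V600D BRaf) grown overnight in 10% FBS RPMI, then treated 1–2 h at 37 °C in serum-free RPMI with eight 3-fold dilutions of compound (from 5 mM DMSO stock, 1000× dilution). Lysate phospho-ERK1,2 quantified by Bio-Plex bead immunoassay.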

V599E Raf, sequence (P15056 whole entry V600E): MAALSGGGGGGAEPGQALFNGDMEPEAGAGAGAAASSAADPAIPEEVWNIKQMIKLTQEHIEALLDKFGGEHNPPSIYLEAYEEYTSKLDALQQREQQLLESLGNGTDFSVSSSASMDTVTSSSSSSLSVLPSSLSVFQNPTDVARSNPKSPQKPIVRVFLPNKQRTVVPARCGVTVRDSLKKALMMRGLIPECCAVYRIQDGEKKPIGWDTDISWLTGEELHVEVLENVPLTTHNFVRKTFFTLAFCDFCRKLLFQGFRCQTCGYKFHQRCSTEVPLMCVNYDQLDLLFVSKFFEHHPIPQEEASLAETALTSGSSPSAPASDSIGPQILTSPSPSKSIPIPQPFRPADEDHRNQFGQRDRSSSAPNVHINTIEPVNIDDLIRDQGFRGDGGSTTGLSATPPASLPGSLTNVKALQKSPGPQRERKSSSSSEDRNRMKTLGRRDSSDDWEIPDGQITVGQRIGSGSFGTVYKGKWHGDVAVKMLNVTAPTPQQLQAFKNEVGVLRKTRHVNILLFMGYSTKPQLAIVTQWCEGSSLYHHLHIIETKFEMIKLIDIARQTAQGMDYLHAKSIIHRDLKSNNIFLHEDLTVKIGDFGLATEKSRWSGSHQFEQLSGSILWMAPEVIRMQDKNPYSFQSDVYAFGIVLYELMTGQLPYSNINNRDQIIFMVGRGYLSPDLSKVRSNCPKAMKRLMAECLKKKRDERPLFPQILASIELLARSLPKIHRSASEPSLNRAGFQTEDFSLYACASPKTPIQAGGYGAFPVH

IC50 (V599E Raf) | EC50 [1] | EC50 ([1]; Homo sapiens) | SMILES
≤ 100 nM | 100 to 1000 nM | – | CC(NC(=O)c1cc2c(cn1)ncn2C)c1cnc(Nc2ccc(C(F)(F)F)cn2)cn1 (stereo not drawn) [Example 264]
≤ 100 nM | – | 100 to 1000 nM | CCn1cnc2cnc(C(=O)NC(C)c3cnc(Nc4ccc(Cl)c(C(F)(F)F)c4)cn3)cc21 (stereo not drawn) [Example 233]
≤ 100 nM | – | 1000 to 10000 nM | C[C@@H](NC(=O)c1csc(N)n1)c1ncc(C(=O)Nc2cc(C(F)(F)F)c(Cl)cn2)s1 [Example 98]
≤ 100 nM | – | 100 to 1000 nM | CCn1cnc2cnc(C(=O)NC(C)c3cnc(Nc4ccc(C(F)(F)F)nc4)s3)cc21 (stereo not drawn) [Example 291]
100 to 1000 nM | – | 1000 to 10000 nM | CC(=O)Nc1cccc(C(=O)N[C@H](C)c2ncc(C(=O)Nc3cc(C(F)(F)F)c(Cl)cn3)s2)n1 [Example 93]
100 to 1000 nM | – | 1000 to 10000 nM | C[C@@H](NC(=O)c1ccc2ncccc2c1)c1cc(C(=O)Nc2cnc(C(C)(C)C)nc2N)no1 [Example 65]
≤ 100 nM | – | 1000 to 10000 nM | C[C@@H](NC(=O)c1ccc2[nH]c(CO)nc2c1)c1ncc(C(=O)Nc2cc(C(F)(F)F)c(Cl)cn2)s1 [Example 55]
≤ 100 nM | – | 100 to 1000 nM | CC(NC(=O)c1cnc2n1CCCN2)c1cnc(Nc2ccc(C(F)(F)F)cc2)s1 (stereo not drawn) [Example 177]
≤ 100 nM | – | 100 to 1000 nM | C[C@@H](NC(=O)c1cc2c(cn1)ncn2CCS(C)(=O)=O)c1cnc(Nc2ccc(C(F)(F)F)cc2)s1 [Example 185]
≤ 100 nM | – | 1000 to 10000 nM | CC(NC(=O)c1cnn(C)c1)c1cnc(Nc2ccc(C(F)(F)F)cc2)s1 (stereo not drawn) [Example 109]
≤ 100 nM | – | 1000 to 10000 nM | O=C(NCc1cnc(Nc2ccc(C(F)(F)F)cc2)s1)c1ccc2ncccc2c1 [Example 189]
≤ 100 nM | – | 100 to 1000 nM | CC(NC(=O)c1cc2c(cn1)ncn2C)c1cnc(Nc2ccc(C(F)(F)F)cc2Cl)cn1 (stereo not drawn) [Example 265a]
≤ 100 nM | – | ≤ 100 nM | C[C@@H](NC(=O)c1cc2c(cn1)ncn2C)c1cnc(Nc2cnc(C(C)(C)C)nc2)s1 [Example 241]
100 to 1000 nM | – | – | C[C@@H](NC(=O)c1cnn2ccccc12)c1cc(C(=O)Nc2nc(C(C)(C)C)ncc2N)no1 [Example 228]
≤ 100 nM | – | 100 to 1000 nM | CC(C)Oc1cc(C(F)(F)F)ccc1Nc1ncc(C(C)NC(=O)c2cc3c(cn2)ncn3C)s1 (stereo not drawn) [Example 289]
100 to 1000 nM | – | 1000 to 10000 nM | CC(NC(=O)c1cc(N)ccn1)c1ncc(C(=O)Nc2cc(C(F)(F)F)c(Cl)cn2)s1 (stereo not drawn) [Example 87]
100 to 1000 nM | – | 1000 to 10000 nM | Cc1cn(-c2cncc(C(=O)NC(C)c3ncc(C(=O)Nc4cc(C(F)(F)F)c(Cl)cn4)s3)c2)cn1 (stereo not drawn) [Example 51]
100 to 1000 nM | – | 1000 to 10000 nM | C[C@@H](NC(=O)c1cc2c(cn1)ncn2C)c1cnc(Nc2ccc(C(F)(F)F)nc2)s1 (single isomer, unassigned) [Example 266]
≤ 100 nM | – | 100 to 1000 nM | C[C@@H](NC(=O)c1cc2ncn(C)c2cn1)c1ncc(C(=O)Nc2cc(C(F)(F)F)c(Cl)cn2)s1 [Example 41]
≤ 100 nM | – | 1000 to 10000 nM | C[C@@H](NC(=O)c1cn(-c2ccncc2)cn1)c1ncc(C(=O)Nc2cc(C(F)(F)F)c(Cl)cn2)s1 [Example 148]
≤ 100 nM | – | ≤ 100 nM | CC(NC(=O)c1cc2c(cn1)ncn2CCN(C)C)c1cnc(Nc2ccc(C(F)(F)F)cc2)s1 (stereo not drawn) [Example 7]
≤ 100 nM | – | ≤ 100 nM | CC(NC(=O)c1cc2c(cn1)nc(N)n2C)c1cnc(Nc2ccc(C(F)(F)F)cc2)s1 (stereo not drawn) [Example 199]
100 to 1000 nM | – | 100 to 1000 nM | CC(NC(=O)c1ccnc(N2CCOCC2)c1)c1ncc(C(=O)Nc2cc(C(F)(F)F)c(Cl)cn2)s1 (stereo not drawn) [Example 89]
≤ 100 nM | – | 1000 to 10000 nM | CC(NC(=O)c1cc2c(cn1)ncn2C)c1cnc(Nc2cc(C#N)cc(C(C)(C)C)c2)s1 (stereo not drawn) [Example 350]
100 to 1000 nM | – | 100 to 1000 nM | C[C@@H](NC(=O)c1cnn(C)c1CNCCF)c1ncc(C(=O)Nc2cc(C(F)(F)F)c(Cl)cn2)s1 [Example 131]
≤ 100 nM | – | 1000 to 10000 nM | C[C@@H](NC(=O)c1cnn2ccccc12)c1cc(C(=O)Nc2nc3cc(Cl)ccc3o2)on1 [Example 212]
≤ 100 nM | – | 100 to 1000 nM | C[C@@H](NC(=O)c1cnn2ccccc12)c1cc(C(=O)Nc2cccc(OC(F)(F)F)c2)on1 [Example 217]
≤ 100 nM | – | 100 to 1000 nM | CC(NC(=O)c1cc2c(cn1)ncn2C1CNC1)c1cnc(Nc2ccc(C(F)(F)F)cc2)cn1 (stereo not drawn) [Example 179]

IC50 (V599E Raf) | EC50 [1] | EC50 ([1]; Homo sapiens) | SMILES
≤ 100 nM | – | 100 to 1000 nM | CC(NC(=O)c1cc2c(cn1)ncn2C1CCC1)c1cnc(Nc2ccc(Cl)c(C(F)(F)F)c2)cn1 (stereo not drawn) [Example 234]
≤ 100 nM | – | 100 to 1000 nM | COc1cc(C(F)(F)F)ccc1Nc1cnc(C(C)NC(=O)c2cc3c(cn2)ncn3C)cn1 (stereo not drawn) [Example 265b]
≤ 100 nM | – | 100 to 1000 nM | C[C@@H](NC(=O)c1cccc(N2CCOCC2)n1)c1ncc(C(=O)Nc2cc(C(F)(F)F)c(Cl)cn2)s1 [Example 90]
≤ 100 nM | – | 1000 to 10000 nM | C[C@H](NC(=O)c1cc2c(cn1)ncn2C)c1cnc(Nc2ccc(C(F)(F)F)cc2)s1 [Example 3]
≤ 100 nM | – | ≤ 100 nM | CC(NC(=O)c1cc2nc[nH]c2cn1)c1ncc(C(=O)Nc2cc(C(F)(F)F)c(Cl)cn2)s1 (stereo not drawn) [Example 77]
≤ 100 nM | – | 100 to 1000 nM | CC(NC(=O)c1ncc2ncn(C)c2n1)c1cnc(Nc2ccc(C(F)(F)F)cc2)s1 (stereo not drawn) [Example 190]
≤ 100 nM | – | 1000 to 10000 nM | C[C@@H](NC(=O)c1cscn1)c1ncc(C(=O)Nc2cc(C(F)(F)F)c(Cl)cn2)s1 [Example 95]
≤ 100 nM | – | ≤ 100 nM | C[C@H](NC(=O)c1cc2c(cn1)ncn2C)c1cnc(Nc2ccc(C(F)(F)F)nc2)s1 (single isomer, unassigned) [Example 267]
100 to 1000 nM | – | ≤ 100 nM | CCc1nc(C(C)(C)C)ncc1Nc1ncc(C(C)NC(=O)c2cc3c(cn2)ncn3C)s1 (stereo not drawn) [Example 295]
≤ 100 nM | – | 100 to 1000 nM | C[C@@H](NC(=O)c1ccc2[nH]ccc2c1)c1ncc(C(=O)Nc2cc(C(F)(F)F)c(Cl)cn2)s1 [Example 56]
≤ 100 nM | – | 100 to 1000 nM | Cc1nc2cc(C(=O)N[C@H](C)c3ncc(C(=O)Nc4cc(C(F)(F)F)c(Cl)cn4)s3)ccc2[nH]1 [Example 49]
≤ 100 nM | – | 100 to 1000 nM | CNC(=O)Cn1cnc2cnc(C(=O)NC(C)c3cnc(Nc4ccc(C(F)(F)F)cc4)s3)cc21 (stereo not drawn) [Example 356]
≤ 100 nM | – | 100 to 1000 nM | CC(NC(=O)c1cc2c(cn1)ncn2C)c1cnc(Nc2ccc(C(F)(F)F)nc2Cl)s1 (stereo not drawn) [Example 263]
≤ 100 nM | – | 1000 to 10000 nM | CCN1CCn2c(C(=O)NC(C)c3cnc(Nc4ccc(C(F)(F)F)cc4)s3)cnc2C1 (stereo not drawn) [Example 318]
≤ 100 nM | – | 1000 to 10000 nM | C[C@@H](NC(=O)c1cnn(-c2ccccn2)c1)c1ncc(C(=O)Nc2cc(C(F)(F)F)c(Cl)cn2)s1 [Example 119]
≤ 100 nM | – | ≤ 100 nM | C[C@@H](NC(=O)c1cc2c(cn1)ncn2C1CCC1)c1cnc(Nc2ccc(C(F)(F)F)cc2)cn1 (single isomer, unassigned) [Example 188]
100 to 1000 nM | – | 1000 to 10000 nM | Cc1nn(C)cc1C(=O)N[C@H](C)c1ncc(C(=O)Nc2cc(C(F)(F)F)c(Cl)cn2)s1 [Example 123]
1000 to 10000 nM | – | – | C[C@@H](NC(=O)c1cnn2ccccc12)c1cc(C(=O)NC2CC(C)(C)NC(C)(C)C2)on1 [Example 216]
1000 to 10000 nM | – | – | C[C@@H](NC(=O)c1cnn2ccccc12)c1cc(C(=O)NC2C[C@@H]3CC[C@H]2C3)on1 (stereo partly drawn) [Example 213]
100 to 1000 nM | – | – | C[C@@H](NC(=O)c1cnn2ccccc12)c1cc(C(=O)Nc2nc3ccc(F)cc3s2)on1 [Example 210]
1000 to 10000 nM | – | – | C[C@@H]1[C@]2(C)CC[C@@]1(C)[C@@H](NC(=O)c1cc([C@@H](C)NC(=O)c3cnn4ccccc34)no1)C2 [Example 215]
100 to 1000 nM | – | – | Cc1ccc(NC(=O)c2cc(C(C)(C)NC(=O)c3cnn4ccccc34)on2)cc1C(F)(F)F [Example 230]
– | – | 100 to 1000 nM | CC(NC(=O)c1cccc(-c2cccnc2)c1)c1ncc(C(=O)Nc2cc(C(F)(F)F)c(Cl)cn2)s1 (stereo not drawn) [Example 47]
– | – | ≤ 100 nM | CC(C)Cn1cnc2cnc(C(=O)NC(C)c3cnc(Nc4ccc(C(F)(F)F)cc4)s3)cc21 (stereo not drawn) [Example 15]
– | – | ≤ 100 nM | CCn1c(C(=O)N[C@H](C)c2ncc(C(=O)Nc3cc(C(F)(F)F)c(Cl)cn3)s2)cnc1C [Example 151]
– | – | 100 to 1000 nM | CC(NC(=O)c1cc2c(cn1)ncn2C)c1cnc(Nc2ccc(Cl)cc2)cn1 (stereo not drawn) [Example 255]
– | – | 100 to 1000 nM | Cc1[nH]ncc1C(=O)N[C@H](C)c1ncc(C(=O)Nc2cc(C(F)(F)F)c(Cl)cn2)s1 [Example 113]
